The results in this text go back to article PMC4685510, “A Cell Biologist’s Field Guide to Aurora Kinase Inhibitors” (Frontiers in Oncology, 2015).

What all share (test): biochemical
Holding throughout (type): biochemical

Assay [1] deals with 363 human kinases (including Aurora A/B/C) (Homo sapiens, UniProt P37173). The note with it: TGFBR2; for remaining activity at 0.1 µM: 100 nM; for remaining activity at 0.1 µM / remaining activity at 0.5 µM: read-out: % Enzyme Activity (relative to DMSO controls).
363 human kinases (including Aurora A/B/C) (Homo sapiens, UniProt P37173), sequence (P37173 23-567): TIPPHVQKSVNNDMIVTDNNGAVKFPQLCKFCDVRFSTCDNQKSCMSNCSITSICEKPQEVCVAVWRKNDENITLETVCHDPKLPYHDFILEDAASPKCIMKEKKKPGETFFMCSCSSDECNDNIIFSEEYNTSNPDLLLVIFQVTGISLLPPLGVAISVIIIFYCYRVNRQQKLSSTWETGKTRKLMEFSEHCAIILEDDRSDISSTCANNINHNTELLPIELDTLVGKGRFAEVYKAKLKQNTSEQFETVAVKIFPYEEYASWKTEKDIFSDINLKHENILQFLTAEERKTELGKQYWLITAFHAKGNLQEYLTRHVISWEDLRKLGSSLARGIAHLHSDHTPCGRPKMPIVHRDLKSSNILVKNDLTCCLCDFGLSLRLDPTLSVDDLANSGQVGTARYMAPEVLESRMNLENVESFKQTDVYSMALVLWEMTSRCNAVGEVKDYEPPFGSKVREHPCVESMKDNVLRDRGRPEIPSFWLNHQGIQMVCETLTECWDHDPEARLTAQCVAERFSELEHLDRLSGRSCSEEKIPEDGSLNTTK
From the text: (§1) However, the Aurora A/B selectivity ratios derived from our in vitro and in vivo data can be compared to prioritize inhibitors.
Assay [2] deals with 363 human kinases (including Aurora A/B/C) (Homo sapiens, UniProt Q9UBS0). The settings on record: p70S6Kb/RPS6KB2; for remaining activity at 0.1 µM: 100 nM; for remaining activity at 0.1 µM / remaining activity at 0.5 µM: read-out: % Enzyme Activity (relative to DMSO controls).
From the text: as §1
Assay [3] addresses 363 human kinases (including Aurora A/B/C) (Homo sapiens, UniProt P04049). The settings on record: RAF1; for remaining activity at 0.1 µM: 100 nM; for remaining activity at 0.1 µM / remaining activity at 0.5 µM: read-out: % Enzyme Activity (relative to DMSO controls).
From the text: as §1
The target in assay [4] is T1, 363 human kinases (including Aurora A/B/C) (Homo sapiens, UniProt Q96KB5).
T1 sequence (Q96KB5 1-322): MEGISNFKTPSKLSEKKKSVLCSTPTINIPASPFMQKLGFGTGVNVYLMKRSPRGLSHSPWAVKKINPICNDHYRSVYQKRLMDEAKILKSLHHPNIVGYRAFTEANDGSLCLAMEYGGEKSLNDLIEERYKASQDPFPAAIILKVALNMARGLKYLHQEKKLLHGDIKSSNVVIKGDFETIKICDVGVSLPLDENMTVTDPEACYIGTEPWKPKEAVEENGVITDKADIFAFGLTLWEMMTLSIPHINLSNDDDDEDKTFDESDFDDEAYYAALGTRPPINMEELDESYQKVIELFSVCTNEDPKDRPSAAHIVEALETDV
The settings on record: PBK/TOPK; for remaining activity at 0.1 µM: 100 nM; for remaining activity at 0.1 µM / remaining activity at 0.5 µM: read-out: % Enzyme Activity (relative to DMSO controls).
From the text: as §1

The target of assay [5] is 363 human kinases (including Aurora A/B/C) (Homo sapiens, UniProt O75582). The settings on record: MSK1/RPS6KA5; for remaining activity at 0.1 µM: 100 nM; for remaining activity at 0.1 µM / remaining activity at 0.5 µM: read-out: % Enzyme Activity (relative to DMSO controls).
From the text: as §1
In assay [6] the target is 363 human kinases (including Aurora A/B/C) (Homo sapiens, UniProt P16591). The note with it: FER, [ATP] 50 µM; for remaining activity at 0.1 µM: 100 nM; for remaining activity at 0.1 µM / remaining activity at 0.5 µM: read-out: % Enzyme Activity (relative to DMSO controls).
363 human kinases (including Aurora A/B/C) (Homo sapiens, UniProt P16591), sequence (P16591 whole entry): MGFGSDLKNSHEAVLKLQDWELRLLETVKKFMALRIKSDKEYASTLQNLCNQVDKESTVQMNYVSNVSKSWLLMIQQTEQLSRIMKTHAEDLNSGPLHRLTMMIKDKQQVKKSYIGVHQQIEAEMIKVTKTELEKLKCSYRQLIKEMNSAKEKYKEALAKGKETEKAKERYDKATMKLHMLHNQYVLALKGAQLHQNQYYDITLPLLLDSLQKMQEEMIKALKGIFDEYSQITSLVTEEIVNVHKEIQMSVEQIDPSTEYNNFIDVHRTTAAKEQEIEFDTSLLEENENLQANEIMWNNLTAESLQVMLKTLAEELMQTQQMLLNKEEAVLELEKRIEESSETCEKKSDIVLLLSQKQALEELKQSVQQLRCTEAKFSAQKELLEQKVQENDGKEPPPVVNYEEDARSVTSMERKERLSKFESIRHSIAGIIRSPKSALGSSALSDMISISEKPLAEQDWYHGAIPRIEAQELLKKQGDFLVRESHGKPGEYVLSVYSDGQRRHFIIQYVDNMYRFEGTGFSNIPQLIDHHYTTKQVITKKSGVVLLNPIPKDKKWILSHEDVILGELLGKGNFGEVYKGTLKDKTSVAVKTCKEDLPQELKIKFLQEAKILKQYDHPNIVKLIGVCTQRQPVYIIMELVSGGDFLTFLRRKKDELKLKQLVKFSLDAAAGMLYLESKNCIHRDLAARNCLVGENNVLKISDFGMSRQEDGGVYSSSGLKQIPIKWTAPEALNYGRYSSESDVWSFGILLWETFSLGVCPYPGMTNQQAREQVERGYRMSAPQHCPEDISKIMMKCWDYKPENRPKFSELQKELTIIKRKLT
From the text: as §1
The target in assay [7] is 363 human kinases (including Aurora A/B/C) (Homo sapiens, UniProt P49760). The settings on record: CLK2, [ATP] 50 µM; for remaining activity at 0.1 µM: 100 nM; for remaining activity at 0.1 µM / remaining activity at 0.5 µM: read-out: % Enzyme Activity (relative to DMSO controls).
363 human kinases (including Aurora A/B/C) (Homo sapiens, UniProt P49760), sequence (P49760 whole entry): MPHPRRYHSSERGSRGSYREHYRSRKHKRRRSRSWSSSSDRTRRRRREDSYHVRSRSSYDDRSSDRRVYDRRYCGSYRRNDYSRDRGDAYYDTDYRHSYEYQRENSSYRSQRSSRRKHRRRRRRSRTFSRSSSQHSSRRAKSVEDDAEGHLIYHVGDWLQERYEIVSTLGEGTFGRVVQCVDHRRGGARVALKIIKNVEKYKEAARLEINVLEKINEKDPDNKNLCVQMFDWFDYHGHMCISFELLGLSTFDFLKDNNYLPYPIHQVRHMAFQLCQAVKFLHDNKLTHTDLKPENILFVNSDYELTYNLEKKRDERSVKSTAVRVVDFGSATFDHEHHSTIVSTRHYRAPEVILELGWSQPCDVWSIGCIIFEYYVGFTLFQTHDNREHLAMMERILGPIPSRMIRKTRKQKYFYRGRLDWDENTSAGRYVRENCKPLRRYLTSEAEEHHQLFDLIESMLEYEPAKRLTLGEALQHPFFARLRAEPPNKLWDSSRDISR
From the text: as §1
For assay [8], the target named is 363 human kinases (including Aurora A/B/C) (Homo sapiens, UniProt P78362). The settings on record: SRPK2; for remaining activity at 0.1 µM: 100 nM; for remaining activity at 0.1 µM / remaining activity at 0.5 µM: read-out: % Enzyme Activity (relative to DMSO controls).
363 human kinases (including Aurora A/B/C) (Homo sapiens, UniProt P78362), sequence (P78362 whole entry): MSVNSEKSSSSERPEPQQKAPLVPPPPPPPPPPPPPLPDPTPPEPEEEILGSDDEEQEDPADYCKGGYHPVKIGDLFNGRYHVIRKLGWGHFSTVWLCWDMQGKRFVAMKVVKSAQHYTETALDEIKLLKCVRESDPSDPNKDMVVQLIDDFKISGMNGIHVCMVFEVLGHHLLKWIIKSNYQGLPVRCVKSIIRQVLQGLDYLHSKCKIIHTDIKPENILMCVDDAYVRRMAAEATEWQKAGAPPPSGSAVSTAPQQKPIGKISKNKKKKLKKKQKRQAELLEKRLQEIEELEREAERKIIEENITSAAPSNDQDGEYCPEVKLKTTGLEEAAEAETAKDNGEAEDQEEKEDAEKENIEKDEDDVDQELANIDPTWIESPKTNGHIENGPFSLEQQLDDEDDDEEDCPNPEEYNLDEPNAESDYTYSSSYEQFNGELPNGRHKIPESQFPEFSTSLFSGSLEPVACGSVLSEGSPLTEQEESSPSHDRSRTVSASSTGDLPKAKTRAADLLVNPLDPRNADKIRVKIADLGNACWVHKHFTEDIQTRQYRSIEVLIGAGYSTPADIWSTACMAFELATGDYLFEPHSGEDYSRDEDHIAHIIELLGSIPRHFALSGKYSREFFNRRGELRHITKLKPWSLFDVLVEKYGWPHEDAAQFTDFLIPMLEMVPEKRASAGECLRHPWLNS
From the text: as §1
For assay [9], the target named is 363 human kinases (including Aurora A/B/C) (Homo sapiens, UniProt Q02779). The settings on record: MLK2/MAP3K10; for remaining activity at 0.1 µM: 100 nM; for remaining activity at 0.1 µM / remaining activity at 0.5 µM: read-out: % Enzyme Activity (relative to DMSO controls).
From the text: as §1
Assay [10] has as its target 363 human kinases (including Aurora A/B/C) (Homo sapiens, UniProt P57059). The note with it: SIK1; for remaining activity at 0.1 µM: 100 nM; for remaining activity at 0.1 µM / remaining activity at 0.5 µM: read-out: % Enzyme Activity (relative to DMSO controls).
From the text: as §1
Assay [11] deals with 363 human kinases (including Aurora A/B/C) (Homo sapiens, UniProt Q7KZI7). The note with it: MARK2/PAR-1Ba; for remaining activity at 0.1 µM: 100 nM; for remaining activity at 0.1 µM / remaining activity at 0.5 µM: read-out: % Enzyme Activity (relative to DMSO controls).
363 human kinases (including Aurora A/B/C) (Homo sapiens, UniProt Q7KZI7), sequence (Q7KZI7 whole entry): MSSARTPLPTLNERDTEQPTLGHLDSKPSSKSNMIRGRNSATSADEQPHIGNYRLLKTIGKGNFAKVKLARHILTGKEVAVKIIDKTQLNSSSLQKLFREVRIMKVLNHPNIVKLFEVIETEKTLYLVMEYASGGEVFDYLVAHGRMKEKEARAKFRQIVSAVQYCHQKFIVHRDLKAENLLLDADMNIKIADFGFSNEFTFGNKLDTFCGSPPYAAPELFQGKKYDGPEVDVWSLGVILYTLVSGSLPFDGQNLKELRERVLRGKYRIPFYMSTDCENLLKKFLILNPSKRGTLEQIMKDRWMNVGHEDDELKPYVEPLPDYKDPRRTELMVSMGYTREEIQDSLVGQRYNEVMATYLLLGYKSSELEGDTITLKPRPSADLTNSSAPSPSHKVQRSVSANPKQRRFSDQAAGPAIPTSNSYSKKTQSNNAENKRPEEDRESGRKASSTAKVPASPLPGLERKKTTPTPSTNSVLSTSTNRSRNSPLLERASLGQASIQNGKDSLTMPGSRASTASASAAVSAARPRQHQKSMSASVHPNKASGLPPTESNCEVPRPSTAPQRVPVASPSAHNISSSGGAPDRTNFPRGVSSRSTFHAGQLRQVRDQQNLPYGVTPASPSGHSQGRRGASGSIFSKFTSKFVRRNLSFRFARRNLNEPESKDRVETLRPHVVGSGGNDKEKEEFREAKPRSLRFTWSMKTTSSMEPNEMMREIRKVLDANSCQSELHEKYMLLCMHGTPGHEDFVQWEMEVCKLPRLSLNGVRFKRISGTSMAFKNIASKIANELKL
From the text: as §1
In assay [12] the target is 363 human kinases (including Aurora A/B/C) (Homo sapiens, UniProt Q9BYT3). The note with it: STK33; for remaining activity at 0.1 µM: 100 nM; for remaining activity at 0.1 µM / remaining activity at 0.5 µM: read-out: % Enzyme Activity (relative to DMSO controls).
From the text: as §1
For assay [13], the target named is 363 human kinases (including Aurora A/B/C) (Homo sapiens, UniProt P04626). The note with it: ERBB2/HER2, [ATP] 20 µM; for remaining activity at 0.1 µM: 100 nM; for remaining activity at 0.1 µM / remaining activity at 0.5 µM: read-out: % Enzyme Activity (relative to DMSO controls).
From the text: as §1
Assay [14] concerns the target T2, 363 human kinases (including Aurora A/B/C) (Homo sapiens, UniProt Q9H2K8).
T2 sequence (Q9H2K8 1-898): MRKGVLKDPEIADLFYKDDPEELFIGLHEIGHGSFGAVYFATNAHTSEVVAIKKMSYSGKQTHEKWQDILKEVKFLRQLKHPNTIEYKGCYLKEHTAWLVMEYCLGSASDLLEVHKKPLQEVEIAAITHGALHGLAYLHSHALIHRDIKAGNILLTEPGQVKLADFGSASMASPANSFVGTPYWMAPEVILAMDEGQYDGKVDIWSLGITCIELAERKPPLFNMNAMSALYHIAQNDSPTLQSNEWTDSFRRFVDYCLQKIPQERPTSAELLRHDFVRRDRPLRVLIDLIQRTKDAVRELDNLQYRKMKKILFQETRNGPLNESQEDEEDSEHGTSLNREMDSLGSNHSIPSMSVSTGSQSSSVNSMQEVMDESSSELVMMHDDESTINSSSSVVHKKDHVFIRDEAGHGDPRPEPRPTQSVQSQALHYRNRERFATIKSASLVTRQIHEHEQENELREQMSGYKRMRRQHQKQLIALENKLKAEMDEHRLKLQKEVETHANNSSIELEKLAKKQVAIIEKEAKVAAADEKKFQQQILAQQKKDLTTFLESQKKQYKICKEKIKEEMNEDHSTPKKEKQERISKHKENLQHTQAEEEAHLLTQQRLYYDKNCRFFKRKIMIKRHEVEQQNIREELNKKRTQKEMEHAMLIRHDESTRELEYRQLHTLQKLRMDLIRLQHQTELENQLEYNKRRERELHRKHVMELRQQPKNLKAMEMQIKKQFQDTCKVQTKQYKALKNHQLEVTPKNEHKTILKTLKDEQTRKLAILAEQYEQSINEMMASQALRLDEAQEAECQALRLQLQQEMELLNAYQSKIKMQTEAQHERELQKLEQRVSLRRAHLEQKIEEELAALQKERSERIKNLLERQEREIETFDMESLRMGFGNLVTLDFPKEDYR
The settings on record: TAOK3/JIK; for remaining activity at 0.1 µM: 100 nM; for remaining activity at 0.1 µM / remaining activity at 0.5 µM: read-out: % Enzyme Activity (relative to DMSO controls).
From the text: as §1

363 human kinases (including Aurora A/B/C) (Homo sapiens, UniProt P57059), sequence (P57059 whole entry): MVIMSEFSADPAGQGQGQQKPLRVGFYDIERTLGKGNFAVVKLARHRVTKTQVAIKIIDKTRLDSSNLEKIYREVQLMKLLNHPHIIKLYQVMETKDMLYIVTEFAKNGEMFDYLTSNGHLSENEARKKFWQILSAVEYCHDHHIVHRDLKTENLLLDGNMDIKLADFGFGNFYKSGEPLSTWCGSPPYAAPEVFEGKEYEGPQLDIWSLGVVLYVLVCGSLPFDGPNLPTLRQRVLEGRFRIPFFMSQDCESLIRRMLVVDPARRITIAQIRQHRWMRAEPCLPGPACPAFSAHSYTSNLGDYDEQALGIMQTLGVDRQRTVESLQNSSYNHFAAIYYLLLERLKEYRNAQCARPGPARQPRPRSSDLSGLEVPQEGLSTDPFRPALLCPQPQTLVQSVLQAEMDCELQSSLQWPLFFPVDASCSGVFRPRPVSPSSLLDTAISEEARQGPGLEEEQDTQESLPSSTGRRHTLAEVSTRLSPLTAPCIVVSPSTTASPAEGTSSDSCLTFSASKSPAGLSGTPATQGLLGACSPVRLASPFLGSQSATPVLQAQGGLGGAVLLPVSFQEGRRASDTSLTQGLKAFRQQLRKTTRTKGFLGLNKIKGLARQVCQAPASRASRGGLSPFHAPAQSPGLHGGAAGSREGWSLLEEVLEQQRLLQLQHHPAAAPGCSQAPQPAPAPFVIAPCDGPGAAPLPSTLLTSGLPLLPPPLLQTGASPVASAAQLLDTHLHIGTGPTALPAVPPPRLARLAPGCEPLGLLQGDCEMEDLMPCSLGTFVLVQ
363 human kinases (including Aurora A/B/C) (Homo sapiens, UniProt P04049), sequence (P04049 whole entry): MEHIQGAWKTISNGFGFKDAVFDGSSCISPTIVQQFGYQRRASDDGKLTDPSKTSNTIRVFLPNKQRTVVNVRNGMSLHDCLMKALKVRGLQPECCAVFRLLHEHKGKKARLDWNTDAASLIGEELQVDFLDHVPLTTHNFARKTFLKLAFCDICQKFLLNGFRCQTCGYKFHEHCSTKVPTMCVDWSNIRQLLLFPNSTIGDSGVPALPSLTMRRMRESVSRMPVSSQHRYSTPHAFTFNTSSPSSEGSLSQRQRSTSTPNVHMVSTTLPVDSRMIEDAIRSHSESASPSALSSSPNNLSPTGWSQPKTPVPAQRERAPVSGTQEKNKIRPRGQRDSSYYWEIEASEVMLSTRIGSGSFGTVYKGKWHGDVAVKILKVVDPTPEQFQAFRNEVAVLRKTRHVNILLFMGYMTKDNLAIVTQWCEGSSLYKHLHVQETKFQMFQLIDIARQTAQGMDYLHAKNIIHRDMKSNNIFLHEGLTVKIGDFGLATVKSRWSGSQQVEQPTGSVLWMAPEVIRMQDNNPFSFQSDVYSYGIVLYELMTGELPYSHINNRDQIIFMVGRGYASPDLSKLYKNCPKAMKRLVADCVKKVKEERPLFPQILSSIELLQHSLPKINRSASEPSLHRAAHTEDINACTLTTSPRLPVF

For `CCn1cc(-c2ccnc3[nH]c(-c4cccc(CN(C)C)c4)cc23)c(-c2ccc(NC(=O)N(C)C)cc2)n1` [GSK1070916], the remaining activity at 0.1 µM amounted to 121% in assay [1]; 110% in assay [2]; 100% in assay [3]; 97.5% in [4]; 101% in assay [5]; 96.5% in assay [6]. The remaining activity at 0.1 µM in assay [7] is 93.6%; in assay [8] it was 96.5%; in assay [9] it was 75.6%; in assay [10] it was 40.7%; in assay [11], 96.9%; in [12], 111%. The remaining activity at 0.1 µM in assay [13] was 103%; in [14], 174%.

`O=C(O)[C@]1(Cc2cccc(Nc3nccs3)n2)CC[C@@H](Oc2cccc(Cl)c2F)CC1` [MK-5108]: the remaining activity at 0.1 µM is 92.6% in assay [1]; 100% in [2]; 97.7% in assay [3]; 93.9% in [4]; 99.7% in [5]; 87% in [6]. Also, the remaining activity at 0.1 µM in [7] was 72.9%; in [8] it was 95.4%; in assay [9], 23.5%; in [10] it was 103%; in [11], 96.8%; in assay [12], 79.3%. Besides, the remaining activity at 0.1 µM in assay [13] was found to be 100%; in [14], 80.2%. The remaining activity at 0.5 µM stood at 86.3% in assay [1] (500 nM); 99% in assay [2] (500 nM); 94.8% in assay [3] (500 nM); 95.4% in assay [4] (500 nM); 86.8% in [5] (500 nM); 49.8% in [6] (500 nM). For the same compound, the remaining activity at 0.5 µM in [7] (500 nM) is 25.4%; in assay [8] (500 nM) it was 94.3%; in [9] (500 nM), 5.55%; in assay [10] (500 nM), 54.4%; in assay [11] (500 nM) it was 97.8%; in assay [12] (500 nM), 70.5%. Besides, the remaining activity at 0.5 µM in assay [13] (500 nM) was determined as 111%; in assay [14] (500 nM), 110%.

Regarding `O=C(c1cccc(Cl)c1F)N1CCN(Cc2cccc(Nc3nccs3)n2)CC1` [MK-8745], the “% Enzyme Activity (relative to DMSO controls)” value in assay [1] (500 nM) is given as 108.29%; in [2] (500 nM), 97.78%; in assay [3] (500 nM), 93.98%; in assay [4] (500 nM) it was 91.24%; in assay [5] (500 nM) it was 93.34%; in assay [6] (500 nM) it was 82.62%. Moreover, the “% Enzyme Activity (relative to DMSO controls)” value in assay [7] (500 nM) came out at 95.24%; in [8] (500 nM) it was 98.38%; in [9] (500 nM), 79.50%; in assay [10] (500 nM) it was 93.78%; in [11] (500 nM), 103.22%; in assay [12] (500 nM), 107.39%. Besides, the “% Enzyme Activity (relative to DMSO controls)” value in [13] (500 nM) turned out to be 99.40%; in [14] (500 nM) it was 93.76%. Moreover, the remaining activity at 0.5 µM is 109% in [1] (500 nM); 99.3% in assay [2] (500 nM); 95.6% in [3] (500 nM); 94.4% in [4] (500 nM); 96.3% in assay [5] (500 nM); 83.7% in assay [6] (500 nM). Besides, the remaining activity at 0.5 µM in assay [7] (500 nM) is 99%; in assay [8] (500 nM) it was 99.7%; in assay [9] (500 nM), 79.9%; in [10] (500 nM), 95.7%; in assay [11] (500 nM), 104%; in assay [12] (500 nM), 110%. Besides, the remaining activity at 0.5 µM stood at 99.8% in assay [13] (500 nM) and 95.2% in [14] (500 nM).
